This note sets out measurements from PubChem BioAssay AID1259407 (Chemical Carcinogenesis Research Information System (CCRIS), 2018).

Calls of active or inactive are those of the source. The rule behind the calls is not given here.

The test system of the data set is CCRIS mutagenicity, Ames/micronucleus/aberration tests. Put plainly: CCRIS mutagenicity studies.

Turning to `CC1(C)C=C(C(=O)O)C(C)(C)N1[O]`, the mutagenic call reads like this: (Test System: AMES SALMONELLA TYPHIMURIUM, Strain/Indicator: TA98, Metabolic Activation: NONE, Method: STANDARD PLATE) “inactive; negative”; (Test System: AMES SALMONELLA TYPHIMURIUM, Strain/Indicator: TA100, Metabolic Activation: NONE, Method: STANDARD PLATE) “inactive; negative”; (Test System: AMES SALMONELLA TYPHIMURIUM, Strain/Indicator: TA102, Metabolic Activation: NONE, Method: STANDARD) “inactive; negative”; (Test System: AMES SALMONELLA TYPHIMURIUM, Strain/Indicator: TA102, Metabolic Activation: NONE, Method: STANDARD PLATE) “inactive; negative”; (Test System: AMES SALMONELLA TYPHIMURIUM, Strain/Indicator: TA102, Metabolic Activation: XANTHINE OXIDASE, Method: STANDARD PLATE) “inactive; negative”; (Test System: AMES SALMONELLA TYPHIMURIUM, Strain/Indicator: TA104, Metabolic Activation: NONE, Method: STANDARD PLATE) “inactive; negative”. For the setting “Test System: AMES SALMONELLA TYPHIMURIUM, Strain/Indicator: TA104, Metabolic Activation: XANTHINE OXIDASE, Method: STANDARD PLATE”, the mutagenic call is “inactive; negative”.
`c1ccc2cc3c(cc2c1)cc1ccc2cccc4ccc3c1c24`: the mutagenic call (Test System: HUMAN H1A1V2 CELLS, Strain/Indicator: TK LOCUS, Metabolic Activation: NONE, Method: SUSPENSION/PLATE) was “active; positive”.
As to `CCCC(=O)OCc1ccccc1[N+](=O)[O-]`, the mutagenic call runs as follows: (Test System: AMES SALMONELLA TYPHIMURIUM, Strain/Indicator: TA98, Metabolic Activation: NONE, Method: PREINCUBATION) “inactive; negative”; (Test System: AMES SALMONELLA TYPHIMURIUM, Strain/Indicator: TA100, Metabolic Activation: NONE, Method: PREINCUBATION) “inactive; negative”; (Test System: AMES SALMONELLA TYPHIMURIUM, Strain/Indicator: TA100, Metabolic Activation: RAT, LIVER, S-9, AROCLOR 1254, Method: PREINCUBATION) “inactive; negative”.
`Nc1c2cc([N+](=O)[O-])ccc2nc2ccc([N+](=O)[O-])cc12`: the mutagenic call (Test System: AMES SALMONELLA TYPHIMURIUM, Strain/Indicator: TA1537, Metabolic Activation: NONE) is “active; positive”.
Regarding `[CH3][Hg][CH3]`, the mutagenic call by setting is: (End Point: IN VITRO CHROMOSOMAL ABERRATIONS, Test System: HUMAN PERIPHERAL LYMPHOCYTES, Metabolic Activation: NONE) “active; positive (structural changes and ploidy)”; (Test System: CHINESE HAMSTER G10, Strain/Indicator: G10/6-THIOGUANINE, Metabolic Activation: NONE) “inactive; negative”; (Test System: CHINESE HAMSTER G12, Strain/Indicator: G12/6-THIOGUANINE, Metabolic Activation: NONE) “inactive; negative”; (Test System: CHINESE HAMSTER V-79, Strain/Indicator: V-79/6-THIOGUANINE, Metabolic Activation: NONE) “inactive; negative”.
For the compound `NNCCO`, the mutagenic call (Test System: E. COLI, Strain/Indicator: WP2, Metabolic Activation: NONE, Method: STANDARD PLATE) was “active; positive”; the mutagenic call (Test System: E. COLI, Strain/Indicator: WP2, Metabolic Activation: RAT, LIVER, Method: STANDARD PLATE) was “active; positive”; the mutagenic call (Test System: E. COLI, Strain/Indicator: WP2HCR, Metabolic Activation: NONE, Method: STANDARD PLATE) was “active; positive”; the mutagenic call (Test System: E. COLI, Strain/Indicator: WP2HCR, Metabolic Activation: S-9 MIX, Method: STANDARD PLATE) was “active; positive”; the mutagenic call (Test System: E. COLI, Strain/Indicator: WP2 UVRA, Metabolic Activation: NONE, Method: STANDARD PLATE) was “active; positive”.
